# Measurements as given in patent US20020010154A1, “Compositions comprising cyclodextrin” (priority 2000, published 2002).
# Structures can show the parent of a compound that is named as a salt.
# Legend:
# [1] = CD interaction of perfume components; type: physicochemical; parameters: key: cyclodextrin-compatible perfume materials (i.e. having weak CD interaction); cyclodextrin-incompatible enduring (hydrophobic) perfume materials (i.e. having significant or strong CD interaction); cyclodextrin-incompatible enduring (hydrophobic) perfume materials (i.e. having significant or strong CD interaction); conditions: perfume component with cyclodextrin
# Excerpt: The following table illustrates the molecular weight property of some of the cyclodextrin-incompatible enduring (hydrophobic) perfume materials (i.e. having significant or strong CD interaction) versus cyclodextrin-compatible perfume materials (i.e. having weak CD interaction).
# [2] = Complexation constant with cyclodextrin, spectral displacement method with phenolphthalein; type: physicochemical; conditions: no unit in table, complexation constants in M^−1
# Excerpt: A spectral displacement method with phenolphthalein is used to determine the complexation constant between cyclodextrin and a given material, especially for surfactants. This method of determining complexation constants with cyclodextrins is described in detail in the following references, which are hereby incorporated herein by reference: Sasaki, K. J., Christian, S. D., and Tucker, E. E., “Study of the Stability of 1:1 Complexes Between Aliphatic Alcohols and b-Cyclodextrins in Aqueous Solution,” Fluid Phase Equilibria, Vol. 49, (Amsterdam, Elsevier Science Publishers, 1989), pp. 281-89. Further information regarding spectral displacement methods can be found in other references, e.g. in Wilson, L. D., Siddall, S. R., and Verrall R. E., “A Spectral Displacement Study of the Binding Constants of Cyclodextrin-Hydrocarbon and—Fluorocarbon Surfactant Inclusion Complexes,” Canadian Journal of Chemistry, Vol. 75, (NRC Canada 1997), pp. 927-933, which is incorporated by reference herein.
# The test method is based on the fact that phenolphthalein will complex with cyclodextrin and in complexed form is colorless. However, it has a strong color at pH 10.5 when in non-complexed form. Other, cyclodextrin-incompatible, materials themselves complex with the cyclodextrin and prevent the phenolphthalein from doing so. Thus the higher the complexation constant of the other component with cyclodextrin, the more non-complexed phenolphthalein will be present and the stronger the observed color.
# The complexation constant of a given material with cyclodextrin is obtained by an absorbance measurement in the visible region at 550 nm that is performed with a spectrophotometer at room temperature. All solutions are prepared in 4.0×10^−3 mol/l Na2CO3 solution to maintain a constant pH. The concentration of phenolphthalein is kept constant at 3.0×10^−5 mol/l. Cyclodextrin concentration and surfactant concentration are varied. Here, optimum parameter values for absorption coefficient of phenolphthalein at 550 nm is 33,000 M^−1 cm^−1, and the complexation constants of phenolphthalein with cyclodextrin and cyclodextrin derivatives are preliminary obtained. […] Complexation constants of cyclodextrin-compatible and/or cyclodextrin-incompatible materials are determined with using the free, uncomplexed phenolphthalein concentration obtained by absorbance at 550 nm.
# [3] = cited from earlier work
# [4] = Complexation constant of phenolphthalein with beta-cyclodextrin (absorbance at 550 nm); type: physicochemical; conditions: room temperature, 4.0×10^−3 mol/l Na2CO3, pH 10.5
# Excerpt: A spectral displacement method with phenolphthalein is used to determine the complexation constant between cyclodextrin and a given material, especially for surfactants. This method of determining complexation constants with cyclodextrins is described in detail in the following references, which are hereby incorporated herein by reference: Sasaki, K. J., Christian, S. D., and Tucker, E. E., “Study of the Stability of 1:1 Complexes Between Aliphatic Alcohols and b-Cyclodextrins in Aqueous Solution,” Fluid Phase Equilibria, Vol. 49, (Amsterdam, Elsevier Science Publishers, 1989), pp. 281-89. Further information regarding spectral displacement methods can be found in other references, e.g. in Wilson, L. D., Siddall, S. R., and Verrall R. E., “A Spectral Displacement Study of the Binding Constants of Cyclodextrin-Hydrocarbon and—Fluorocarbon Surfactant Inclusion Complexes,” Canadian Journal of Chemistry, Vol. 75, (NRC Canada 1997), pp. 927-933, which is incorporated by reference herein. […]
# The complexation constant of a given material with cyclodextrin is obtained by an absorbance measurement in the visible region at 550 nm that is performed with a spectrophotometer at room temperature. […] Complexation constants of cyclodextrin-compatible and/or cyclodextrin-incompatible materials are determined with using the free, uncomplexed phenolphthalein concentration obtained by absorbance at 550 nm.
molecule,measurement,setting,value
CC(C=O)Cc1ccc(C(C)C)cc1 (centres unmarked) [Cymal],CD interaction,[1],strong
CCOC(=O)c1ccccc1C(=O)OCC [Diethyl Phthalate],CD interaction,[1],weak
CC(=O)OC1CC2CC1C1CC=CC21 (centres unmarked) [Flor Acetate],CD interaction,[1],strong
CCC(=O)OC1CC2CC1C1CC=CC21 (centres unmarked) [Frutene],CD interaction,[1],strong
CC1COCc2cc3c(cc21)C(C)(C)C(C)C3(C)C (centres unmarked) [Galaxolide],CD interaction,[1],weak
CCCCCCOC(=O)c1ccccc1O [Hexyl Salicylate],CD interaction,[1],weak
CCCCCCC(C=O)=Cc1ccccc1 [Hexyl cinnamic Aldehyde],CD interaction,[1],weak
CC(=O)C1(C)CC2=C(CCCC2(C)C)CC1C (centres unmarked) [Iso-E Super],CD interaction,[1],weak
CCCCCCCCCCCCCC(=O)OC(C)C [Iso-propyl Myristate],CD interaction,[1],weak
CC(=O)C(C)=C(C)C(C)C(C)(C)C (centres unmarked) [Koavone],CD interaction,[1],strong
"CC(C=O)Cc1ccc(C(C)(C)C)cc1 (centres unmarked) [Lilial, p-t-bucinal]",CD interaction,[1],strong
CC(C)(O)CCCC1=CCC(C=O)CC1 (centres unmarked) [Lyral],CD interaction,[1],weak
CCCCCC1C(=O)CCC1CC(=O)OC (centres unmarked) [Methyl Dihydro Jasmonate],CD interaction,[1],weak
O=C(Cc1ccccc1)OCCc1ccccc1 [Phenyl-Ethyl-Phenyl Acetate],CD interaction,[1],weak
CCCCCCCCCCCCOS(=O)(=O)[O-].[Na+] [Sodium dodecyl sulfate],Complexation Constant (K),[2],about 22000
CCCCCCCCCCCC(=O)[O-].[Na+] [Sodium laurate],Complexation Constant (K),[2],about 16000
CC(=O)OC(C)(C)C1CC=C(C)CC1 (centres unmarked) [Terpinyl Acetate],CD interaction,[1],significant
CCC(C)(O)CCCC(C)C (centres unmarked) [Tetrahydrolinalol],CD interaction,[1],significant
"CC(=O)OC1CCC(C(C)(C)C)CC1 (centres unmarked) [Vertenex, para-tert-butylcyclohexyl acetate]",CD interaction,[1],strong
CC(=O)/C=C/C1C(C)=CCCC1(C)C (centres unmarked) [a-ionone],CD interaction,[1],strong
"[H]/N=C(\N/C(=N/[H])NCCCCCCNC(=N)NC(=N)Nc1ccc(Cl)cc1)Nc1ccc(Cl)cc1 [diacetate salt, 1,1′-hexamethylene bis(5-(p-chlorophenyl)biguanide)]",solubility in water,[3],about 1.8%
"[H]/N=C(\N/C(=N/[H])NCCCCCCNC(=N)NC(=N)Nc1ccc(Cl)cc1)Nc1ccc(Cl)cc1 [digluconate salt, 1,1′-hexamethylene bis(5-(p-chlorophenyl)biguanide)]",solubility in water,[3],about 70%
O=C1OC(c2ccc(O)cc2)(c2ccc(O)cc2)c2ccccc21 [phenolphthalein],complexation constant of phenolphthalein with beta-cyclodextrin,[4],"about 21,000 M^−1"
Lauramine oxide,Complexation Constant (K),[2],about 7500
Laureth-6,Complexation Constant (K),[2],about 10000
a-Me Ionone,CD interaction,[1],strong
